# Assay results taken from patent publication US20060014949A1 (SuperGen Inc., priority 2004, published 2006).
# Columns and labels:
# Assay type in all cases: physicochemical
# [1] = Relative humidity stress experiments, XRPD after storage over saturated salt solutions; details: Sodium Chloride, 75.5 % RH @ 20° C., 27 days
# Description: In relative humidity (RH) stress analysis, open vials containing solid samples were placed inside chambers containing saturated salt solutions along with a small amount of the undissolved salt. The chambers were sealed and allowed to stand at ambient temperature for several days. Samples were analyzed by X-ray powder diffraction (XRPD) immediately after removing the sample from the RH chamber. The RH values these salt solutions were obtained from an ASTM standard.
# [2] = Moisture sorption/desorption analysis (VTI SGA-100); details: for Weight % chg: Table 3
# Description: Moisture sorption/desorption data were collected on a VTI SGA-100 Vapor Sorption Analyzer. Sorption and desorption data were collected over a range of 5 to 95% relative humidity (RH) at 10% RH increments under a nitrogen purge. Sodium chloride (NaCl) and polyvinylpyrrolidone (PVP) were used as the calibration standards. Equilibrium criteria used for analysis were less than 0.0100% weight change in 5 minutes, with a maximum equilibration time of 180 minutes if the weight criterion was not met. Data collected were not corrected for the initial moisture content of the samples.
# [3] = Solid-state stress (compression, heating, grinding, storage) with XRPD form check; details: no solvent; Hydraulic Press 10,000 lbs 1 hour
# Description: X-ray powder diffraction analyses were carried out on a Shimadzu XRD-6000 X-ray powder diffractometer using Cu Kα radiation having a wavelength of 1.5406 Å. The instrument is equipped with a fine-focus X-ray tube. The tube power was set by setting potential difference at 40 kV, and current 40 mA. The divergence and scattering slits were set at 1° and the receiving slit was set at 0.15 mm. Diffracted radiation was detected by a NaI scintillation detector. A theta-two theta continuous scan at 3°/min (0.4 sec/0.02° step) from 2.5 to 40 °2θ was performed. A silicon standard was analyzed each day to check the instrument alignment. Each sample was analyzed in a quartz sample holder. A variable temperature (VT-XRPD) experiment was performed on one form. The sample was prepared for analysis by pressing it into a variable temperature holder.
# [4] = Thermogravimetric analysis (TGA); details: 25 to 150° C.; listed as A
# Description: Thermogravimetric analysis (TGA) was carried out on TA Instruments TGA 2050 or 2950. The calibration standards were nickel and Alumel™. Samples were placed on a clean, aluminum sample pan, accurately weighed, and inserted into the TGA furnace. The samples were heated in nitrogen at a rate of 10° C./min, from 35° C. to a final temperature of 250° C.
compound,measurement,setting,value
Nc1ncn([C@H]2C[C@H](O)[C@@H](CO)O2)c(=O)n1 [Form A],XRPD result,[1],converts into form B
same,total weight loss in the region from 5 to 45% RH,[2]; 5 to 45% RH,about 0.1%
same,total weight gain from 5 to 95% RH,"[2]; 5 to 95% RH, listed as form A",7.3%
same,Weight % chg,"[2]; desorption, RH 4.93 %, 24.89 deg C, 533.4 min",7.1472%
same,Weight % chg,"[2]; desorption, RH 15.15 %, 24.89 deg C, 524.9 min",7.1528%
same,Weight % chg,"[2]; desorption, RH 25.13 %, 24.88 deg C, 515.4 min",7.1586%
same,Weight % chg,"[2]; desorption, RH 35.12 %, 24.88 deg C, 504.8 min",7.1671%
same,Weight % chg,"[2]; desorption, RH 45.07 %, 24.87 deg C, 493.8 min",7.1753%
same,Weight % chg,"[2]; desorption, RH 55.14 %, 24.88 deg C, 480.8 min",7.1837%
same,Weight % chg,"[2]; desorption, RH 65.19 %, 24.88 deg C, 467.8 min",7.1925%
same,Weight % chg,"[2]; desorption, RH 75.49 %, 24.88 deg C, 454.8 min",7.2022%
same,Weight % chg,"[2]; desorption, RH 85.43 %, 24.89 deg C, 443.8 min",7.2106%
same,Weight % chg,"[2]; sorption, RH 5.14 %, 24.92 deg C, 27.9 min",−0.0698%
same,Weight % chg,"[2]; sorption, RH 14.81 %, 24.92 deg C, 41.6 min",−0.0784%
same,Weight % chg,"[2]; sorption, RH 24.88 %, 24.92 deg C, 51.2 min",−0.0804%
same,Weight % chg,"[2]; sorption, RH 34.89 %, 24.92 deg C, 62.2 min",−0.0733%
same,Weight % chg,"[2]; sorption, RH 44.86 %, 24.91 deg C, 82.2 min",−0.1004%
same,Weight % chg,"[2]; sorption, RH 54.83 %, 24.91 deg C, 93.2 min",−0.0931%
same,Weight % chg,"[2]; sorption, RH 64.82 %, 24.91 deg C, 107.7 min",−0.0775%
same,Weight % chg,"[2]; sorption, RH 74.73 %, 24.91 deg C, 118.3 min",−0.0646%
same,Weight % chg,"[2]; sorption, RH 84.63 %, 24.91 deg C, 304.2 min",3.8389%
same,Weight % chg,"[2]; sorption, RH 94.67 %, 24.90 deg C, 433.1 min",7.2104%
same,Weight % chg,"[2]; start, RH 1.46 %, 24.92 deg C, 0.0 min",0.0000%
same,solid form after moisture sorption/desorption analysis,"[2]; after sorption/desorption cycle, listed as form A",retained during the desorption cycle as decitabine polymorph form B
same,weight (water) lost upon equilibration to 5% RH,"[2]; equilibration to 5% RH, listed as form A",0.06%
same,RH above which moisture sorption begins,[2]; sorption cycle,above 75 % RH
same,XRPD Pattern,[3],did not induce a form change
same,TGA Results: percent weight change from 25 to 150° C.,[4],<0.1%
